“Also recorded” adds a separate entry of the source.
Legend:
Sprague-Dawley rats = assay: Effect of Pet-120 on mean arterial blood pressure (MABP) after intravenous bolus infusion; format: in vivo, rat; settings: 50 micrograms Pet-120 after 10 micrograms phenylephrine
Protocol: Male Sprague-Dawley rats weighing 310 grams at the beginning of the experiments were anesthetized with ketamine and xylazine (50 and 10 mg/kg, respectively), and an osmotic miniature pump (model 2002; ALZA Co filled with L-NAME) was canulated to right jugular vien (RJV) and implanted subcutaneously at the dorsum of the neck. L-NAME was infusion from ALZA miniature pump at a rate of 500 ng/minute for 24 hours. One day after the rat was anesthetized again with ketamine and xylazine and the both left jugular vein (LJV) and right common carotid (for MABP monitoring) was canulated. After the rats stabilized, Pet-120 was administered through the LJV (50 μg).
The efficacy of Pet-120, an exemplary NO-donating compound according to some embodiments of the present invention, was assayed as presented hereinabove in animals which were treated with phenylephrine so as to heighten their mean arterial blood pressure.

[1] = test system: cyclic-GMP in isolated aorta of rats; assay: Induction of in vivo nitrate tolerance (cGMP in isolated aorta of rats pre-treated in vivo); design: species or system rat; settings: rats pre-treated in vivo with the same compound
Protocol: For c-GMP levels and tolerance development, the rat's thoracic aorta was isolated after exposure to the tested compound in vivo, and measured as described above in the in vitro assays.
Male Sprague Dawley rats (220 to 250 grams) were housed under constant temperature and humidity conditions. Light was maintained at a 12/12 light dark cycle. Except for 12 hours before the experiment, when food fasting was initiated, all rats had free access to standard rat pellet diet and tap water. The animals were anesthetized by intraperitoneal injection of ketamine and xylazine combination (50 and 10 milligram per kilogram, respectively). […] The catheters were filled with normal saline solution containing 1000 IU/ml of heparin and plugged with a metal pin. Catheters were externalized to the back of the neck region and secured by a polyester felt disk.
After implantation, the rats were individually housed until they regained their preoperative weight and appeared healthy (3 to 4 days post-operation). At this time point (day 0), an osmotic mini-pump (Alza Corp., Palo Alto, Calif.) delivering constant volume (10 μl/hour) of vehicle or drug was connected to one of the intravenous catheters.
For inducing tolerance to the tested NO-donor according to the present invention, the animals received 200 μg/hour of the tested compound for 16 hours (short-term-induced tolerance). A similar number of animals were processed by the same surgical procedure and received the vehicle alone (10 μl/hour of a solution consisting of 30% ethanol and 30% propylene glycol in sterile distilled water for injection).
At the end of the infusion periods used for the development of tolerance (16 hour), the rats were anesthetized as described above, the two catheters were externalized and the delivering catheters were disconnected from the mini-pump. The abdomen was opened by midline incision and the thoracic aorta were isolated, washed and cleaned from the surrounding tissues. […]

isolated rat aorta = assay: Chronic administration of Pet-120 and vasoactivity determination in isolated aorta; format: in vivo; settings: Pet-120 for 7 days
Protocol: Male Sprague Dawley rats (250 to 300 grams) were used and housed under constant temperature and humidity conditions. The animals were anesthetized with intraperitoneal injection of ketamine and xylazine combination (50 and 10 mg/kg, respectively). An osmotic miniature pump (ALZA Corp., Palo Alto, Calif.) delivering constant volume (10 μl/hour) of vehicle and Pet-120 was connected to one of the intravenous catheters. The animals received 200 μg/hour for 7 days. As control, a similar number of animals underwent the same surgical procedure and received the vehicle alone (10 μl/hour of a solution consisting of 30% ethanol and 30% propylene glycol in sterile distilled water for injection). At the end of the infusion periods the rats were anesthetized by the combination described above. The abdomen was opened by midline incision and the thoracic aorta was isolate, washed and cleaned from the surrounding tissues.
The aorta of the rats which were treated as described hereinabove was cut into rings of 4-5 mm long each. The rings were mounted under 1 g tension in organ bath containing 30 ml of Krebs-Hansliet solution (pH 7.4) of the following composition (mM): NaCl […], CaCl2 1.6, MgSO4 1.2, KH2PO4 1.2, NaHCO3 25.0, D-glucose 11.1. At 37 C° and gassed with 95% O2- 5% CO2. […]

Cc1nc(-c2ccc([N+](=O)[O-])cc2)sc1CCO[N+](=O)[O-] [Pet-120, 4-Methyl-5-(2-nitrooxy-ethyl)-2-(4-nitro-phenyl)-thiazole]
effect on mean arterial blood pressure (MABP) (Sprague-Dawley rats): reducing the MABP to its original levels
tolerance induction by cyclic-GMP accumulation in aorta of rats pre-treated in vivo [1]: absence of tolerance induction
tolerance induction after daily in-vivo administration over 7 days versus single dose (vasorelaxation in isolated aorta) (isolated rat aorta): absence of tolerance inducement; also recorded: not to induce tolerance

Reference: patent US8134010B2, “Thiazole-based nitric oxide donors having aryl substituent(s) and uses thereof” (priority 2004, dated 2012)
